Laboratory results from ChEMBL document CHEMBL5154916, “Multiparameter Optimization of Naphthyridine Derivatives as Selective α5-GABAA Receptor Negative Allosteric Modulators” (J Med Chem, 2022).
pIC50: −log10 of the molar value. Active and inactive are the calls of the source. No cut-off for these calls is given here.

How the values were obtained:
[1] = […] in po dosed Wistar rat assessed as NED by Irwin test; assay type: organism-based; conditions: in vivo, read-out: ED
[2] = Bioavailability in Wistar rat total plasma at 1 mg/kg, iv by HPLC-MS/MS analysis; assay type: ADME, organism-based
[3] = biological target: GABA-A receptor; alpha-1/beta-3/gamma-2 (Homo sapiens) (UniProt P14867+P18507+P28472); test: Negative allosteric modulation activity at human recombinant alpha1beta3gamma2 GABAA receptor stably expressed in HEK293 cells assessed as modulation at alpha1 subunit at 10 uM by Patch clamp method; assay type: cell-based; conditions: filed as negative allosteric modulator
Cytochrome P450 2B6 = biological target: T1, Cytochrome P450 2B6 (Homo sapiens, UniProt P20813); test: Inhibition of CYP2B6 (unknown origin); assay type: ADME
T1 sequence (P20813 whole entry): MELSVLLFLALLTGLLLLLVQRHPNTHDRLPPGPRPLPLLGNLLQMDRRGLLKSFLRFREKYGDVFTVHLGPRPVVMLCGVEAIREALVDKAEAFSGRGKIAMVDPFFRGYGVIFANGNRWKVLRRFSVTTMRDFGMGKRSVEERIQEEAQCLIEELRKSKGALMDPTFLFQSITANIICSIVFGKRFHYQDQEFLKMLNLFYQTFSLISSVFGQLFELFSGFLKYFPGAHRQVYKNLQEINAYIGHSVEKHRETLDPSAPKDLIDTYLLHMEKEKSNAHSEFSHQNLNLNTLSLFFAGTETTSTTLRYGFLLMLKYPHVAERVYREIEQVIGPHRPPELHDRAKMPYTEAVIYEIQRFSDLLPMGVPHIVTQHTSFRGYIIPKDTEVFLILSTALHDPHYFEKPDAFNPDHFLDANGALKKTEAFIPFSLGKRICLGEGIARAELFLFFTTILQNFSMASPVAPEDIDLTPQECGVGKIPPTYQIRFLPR

Rattus norvegicus [4] = test: Pro-cognitive activity in po dosed neonatal PCP-impaired social recognition Wistar rat model assessed as time spent social recognition administered 30 min before acquisition by social recognition test; assay type: functional; conditions: 0.5 h, read-out: MED
[5] = Bioavailability in Wistar rat at 1 mg/kg,po or 1 mg/kg, iv by HPLC-MS/MS analysis; assay type: ADME, organism-based; conditions: in vivo
[6] = Half life in Wistar rat total plasma at 1 mg/kg, po by HPLC-MS/MS analysis; assay type: ADME, organism-based
[7] = Cardiovascular toxicity in po dosed guinea pig assessed as NOAEL; assay type: organism-based, Cavia porcellus; conditions: in vivo
[8] = Apparent permeability in human Caco-2 cells at 1 uM by HPLC-UV analysis; assay type: ADME, cell-based
Rattus norvegicus [9] = test: Pro-cognitive activity in neonatal PCP-impaired social recognition Wistar rat model assessed as time spent in recognition of new juveniles at 10 mg/kg, po administered 30 min before acquisition by social recognition test; assay type: functional, organism-based
[10] = Bioavailability in male dog at 10 mg/kg, po or 3 mg/kg, iv by HPLC-MS/MS analysis; assay type: ADME, organism-based, Canis lupus familiaris; conditions: in vivo
[11] = Free plasma concentration in subchronic PCP-induced cognitive impairment associated schizophrenia Wistar rat model at 10 mg/kg, po measured at 1.5 hr post dose by HPLC-MS/MS analysis; assay type: ADME, organism-based; conditions: in vivo
[12] = Volume of distribution in Wistar rat plasma at 1 mg/kg, iv by HPLC-MS/MS analysis; assay type: ADME, organism-based
Homo sapiens = organism: Homo sapiens; test: Selectivity ratio of Ki for human alpha1GABAA receptor to Ki for alpha2 GABAA receptor
[13] = Genotoxicity in Salmonella typhimurium up to 5000 ug/ml by Ames test; assay type: toxicity; conditions: salmonella enterica subsp. enterica serovar typhimurium; dose < 5000 µg/ml
[14] = Plasma protein binding in human; assay type: ADME, cell-free; conditions: read-out: PPB (converted)
Cytochrome P450 2C8 = biological target: T2, Cytochrome P450 2C8 (Homo sapiens, UniProt P10632); test: Inhibition of CYP2C8 (unknown origin); assay type: ADME
T2 sequence (P10632 whole entry): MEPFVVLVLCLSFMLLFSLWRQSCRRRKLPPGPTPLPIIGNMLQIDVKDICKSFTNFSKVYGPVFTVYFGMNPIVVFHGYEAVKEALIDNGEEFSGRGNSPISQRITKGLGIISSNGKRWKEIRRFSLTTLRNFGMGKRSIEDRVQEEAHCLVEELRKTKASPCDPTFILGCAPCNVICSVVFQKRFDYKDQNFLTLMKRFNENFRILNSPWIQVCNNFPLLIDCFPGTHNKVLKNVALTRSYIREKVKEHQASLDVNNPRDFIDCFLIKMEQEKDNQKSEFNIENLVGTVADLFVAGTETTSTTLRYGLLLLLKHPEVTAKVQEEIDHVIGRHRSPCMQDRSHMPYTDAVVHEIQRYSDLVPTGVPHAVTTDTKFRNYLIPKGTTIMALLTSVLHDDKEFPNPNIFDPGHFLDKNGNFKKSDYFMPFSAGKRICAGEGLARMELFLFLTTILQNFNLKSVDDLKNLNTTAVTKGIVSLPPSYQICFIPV

[15] = Plasma level ratio in Wistar rat assessed as ratio between plasma concentration in PCP-induced toxicity Wistar rat model to plasma concentration in pro-cognitive activity for subchronic PCP-induced cognitive impairment associated schizophrenia Wistar rat model
[16] = biological target: Voltage-gated inwardly rectifying potassium channel KCNH2 (Homo sapiens, UniProt Q12809); test: Inhibition of hERG expressed in CHO cells stably at -80 mV holding potential by automated patch clamp method; assay type: toxicity, cell-based
[17] = AUC (0 to infinity) in Wistar rat total plasma at 1 mg/kg, po by HPLC-MS/MS analysis; assay type: ADME, organism-based; parameters: time infinity, dose 1 mg/kg, route po
[18] = […] in po dosed PTZ-induced seizure mouse model assessed as NOAEL by seizure test; assay type: organism-based; conditions: in vivo
[19] = Metabolic stability in guinea pig hepatocyte assessed as intrinsic clearance measured per 10^6 cells; assay type: ADME, cell-based, Cavia porcellus; conditions: hepatocytes, read-out: CLH
[20] = Passive permeability in human Caco-2 cells assessed as permeability damage ratio at 10 uM by HPLC-UV analysis; assay type: ADME, cell-based; conditions: caco-2, 10 µM
Cytochrome P450 2C19 = Cytochrome P450 2C19 (Homo sapiens, UniProt P33261); test: Inhibition of CYP2C19 (unknown origin); assay type: ADME
[21] = Tmax in Wistar rat total plasma at 1 mg/kg, po by HPLC-MS/MS analysis; assay type: ADME, organism-based
[22] = biological target: GABA-A receptor; alpha-5/beta-3/gamma-2 (Homo sapiens) (UniProt P18507+P28472+P31644); test: Negative allosteric modulation activity at human recombinant alpha5beta3gamma2 GABAA receptor stably expressed in HEK293 cells assessed as modulation at alpha5 subunit at 1 uM by Patch clamp method; assay type: cell-based; conditions: filed as negative allosteric modulator
[23] = Metabolic stability in Wistar rat liver microsomes assessed as intrinsic clearance at 2.5 uM; assay type: ADME, Microsome; conditions: read-out: CLH
[24] = Plasma protein binding in rat; assay type: ADME, cell-free; conditions: read-out: PPB (converted)
[25] = […] in po dosed Wistar rat assessed as convulsive activity by assessing NOAEL by electroconvulsive test; assay type: organism-based; conditions: in vivo
[26] = Bioavailability in female dog at 10 mg/kg, po or 3 mg/kg, iv by HPLC-MS/MS analysis; assay type: ADME, organism-based, Canis lupus familiaris; conditions: in vivo
Cytochrome P450 3A4 = Cytochrome P450 3A4 (Homo sapiens, UniProt P08684); test: Inhibition of CYP3A4 (unknown origin); assay type: ADME
[27] = Metabolic stability in Wistar rat hepatocyte assessed as intrinsic clearance measured per 10^6 cells; assay type: ADME, cell-based; conditions: hepatocytes, read-out: CLH

Chain of Voltage-gated inwardly rectifying potassium channel KCNH2 (Q12809 whole entry): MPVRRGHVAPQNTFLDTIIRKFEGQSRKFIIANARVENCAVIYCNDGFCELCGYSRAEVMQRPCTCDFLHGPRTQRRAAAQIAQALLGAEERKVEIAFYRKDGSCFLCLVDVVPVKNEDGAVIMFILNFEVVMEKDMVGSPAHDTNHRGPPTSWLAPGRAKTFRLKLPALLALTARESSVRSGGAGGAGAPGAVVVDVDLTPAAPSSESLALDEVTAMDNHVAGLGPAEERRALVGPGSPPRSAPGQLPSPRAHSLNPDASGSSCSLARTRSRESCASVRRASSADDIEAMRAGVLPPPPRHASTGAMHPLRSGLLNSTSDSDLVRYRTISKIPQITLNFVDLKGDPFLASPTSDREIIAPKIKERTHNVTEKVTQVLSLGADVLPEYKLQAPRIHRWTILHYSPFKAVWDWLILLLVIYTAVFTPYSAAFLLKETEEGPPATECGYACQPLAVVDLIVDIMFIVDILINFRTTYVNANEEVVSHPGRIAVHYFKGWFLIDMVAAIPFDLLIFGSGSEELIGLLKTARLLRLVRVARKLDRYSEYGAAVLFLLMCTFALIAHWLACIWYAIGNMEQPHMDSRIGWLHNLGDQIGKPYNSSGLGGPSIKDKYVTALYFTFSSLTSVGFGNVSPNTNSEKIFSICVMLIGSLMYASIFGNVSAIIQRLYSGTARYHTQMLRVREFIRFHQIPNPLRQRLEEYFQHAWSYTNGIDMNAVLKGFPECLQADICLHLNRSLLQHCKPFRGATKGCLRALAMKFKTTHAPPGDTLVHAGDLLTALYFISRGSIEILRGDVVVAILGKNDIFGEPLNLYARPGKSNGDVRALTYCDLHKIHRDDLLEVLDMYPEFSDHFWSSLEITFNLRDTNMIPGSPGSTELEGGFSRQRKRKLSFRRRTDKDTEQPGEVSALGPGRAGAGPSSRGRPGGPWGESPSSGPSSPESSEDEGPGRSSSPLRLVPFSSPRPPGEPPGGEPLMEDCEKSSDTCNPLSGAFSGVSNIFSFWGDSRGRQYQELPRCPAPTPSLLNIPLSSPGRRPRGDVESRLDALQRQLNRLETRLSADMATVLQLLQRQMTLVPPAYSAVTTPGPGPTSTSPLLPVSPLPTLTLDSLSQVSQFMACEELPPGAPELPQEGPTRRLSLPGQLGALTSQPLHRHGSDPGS
Chain of Cytochrome P450 2C19 (P33261 whole entry): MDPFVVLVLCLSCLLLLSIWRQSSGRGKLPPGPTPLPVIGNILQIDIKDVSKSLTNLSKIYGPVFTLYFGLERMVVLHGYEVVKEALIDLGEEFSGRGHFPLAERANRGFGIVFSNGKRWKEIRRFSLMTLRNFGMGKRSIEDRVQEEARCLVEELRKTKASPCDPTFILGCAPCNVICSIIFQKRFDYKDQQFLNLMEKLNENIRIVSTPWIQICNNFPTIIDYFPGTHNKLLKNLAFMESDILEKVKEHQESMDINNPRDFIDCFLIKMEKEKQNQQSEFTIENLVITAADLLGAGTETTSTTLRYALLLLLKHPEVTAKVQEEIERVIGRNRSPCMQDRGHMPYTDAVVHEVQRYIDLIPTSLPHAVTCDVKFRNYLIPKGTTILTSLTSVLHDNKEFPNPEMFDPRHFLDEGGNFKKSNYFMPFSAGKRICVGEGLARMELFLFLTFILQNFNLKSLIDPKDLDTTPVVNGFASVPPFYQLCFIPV
Chain of Cytochrome P450 3A4 (P08684 whole entry): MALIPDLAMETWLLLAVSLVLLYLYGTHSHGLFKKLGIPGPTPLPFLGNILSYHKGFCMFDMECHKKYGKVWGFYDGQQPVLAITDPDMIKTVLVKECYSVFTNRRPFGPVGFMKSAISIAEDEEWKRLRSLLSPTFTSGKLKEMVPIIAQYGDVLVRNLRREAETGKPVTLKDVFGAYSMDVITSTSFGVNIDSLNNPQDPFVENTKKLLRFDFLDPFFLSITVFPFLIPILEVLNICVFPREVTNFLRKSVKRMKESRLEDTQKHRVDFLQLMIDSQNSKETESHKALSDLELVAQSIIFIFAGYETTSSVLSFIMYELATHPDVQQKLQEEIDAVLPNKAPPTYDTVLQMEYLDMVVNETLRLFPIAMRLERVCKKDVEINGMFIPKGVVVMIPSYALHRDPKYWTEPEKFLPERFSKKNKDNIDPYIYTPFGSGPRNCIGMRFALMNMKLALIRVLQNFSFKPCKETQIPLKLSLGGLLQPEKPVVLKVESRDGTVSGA

Cc1onc(-c2ccc(F)cc2)c1COc1ccc2c(n1)CCN(C(=O)CS(C)(=O)=O)C2
NOAEL [1]: ≥ 300 mg/kg
bioavailability [2]: 35.8%
Activity [3]: -2%
pIC50 (Cytochrome P450 2B6): 4.68
minimal effective dose (Rattus norvegicus [4]): 10 mg/kg
bioavailability [5]: 35.8%
half-life [6]: 70.2 min
NOAEL [7]: ≥ 100 mg/kg
Papp at 1 µM [8]: 43 ×10⁻⁶ cm/s
Activity (Rattus norvegicus [9]): Active
bioavailability [10]: 12.6%
Cp(f) [11]: 6.9 nM
Vd [12]: 1.9 L/kg
Selectivity ratio (Homo sapiens): > 40
Activity [13]: Non-Toxic
fraction unbound [14]: 0.014
pIC50 (Cytochrome P450 2C8): < 4.30
Ratio [15]: 11
pIC50 [16]: 5.21
AUC(0-inf) [17]: 146 ng·h/mL
NOAEL [18]: ≥ 30 mg/kg
hepatocyte CLint [19]: 4 µL/min/1e6 cells
Ratio [20]: 29
pIC50 (Cytochrome P450 2C19): 4.84
Tmax [21]: 30 min
Activity [22]: -24%
microsomal CLint at 2.5 µM [23]: 29 µL/min/mg
fraction unbound [24]: 0.04
NOAEL [25]: ≥ 1000 mg/kg
bioavailability [26]: 6.7%
pIC50 (Cytochrome P450 3A4): < 4.30
hepatocyte CLint [27]: 19 µL/min/1e6 cells
